Measurements taken from patent publication US12077503B2, “Substituted cyclic amides and their use as herbicides” (FMC CORPORATION, priority 2015, dated 2024).

Key:
Type in all cases: in vivo
[1] = tested on: barnyardgrass (Echinochloa crus-galli); assay: Test B flooded paddy test; conditions: Flood, 0 to 100 scale where 0 is no effect and 100 is complete control, 13 to 15 d
Method in brief: (§1)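 Percent control, visually estimated after 13–15 d in the greenhouse on a 0–100 basis, compares treated pots with untreated ones; compound was put into paddy water 3 cm above the soil when plants had two leaves.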

[2] = tested on: rice (Oryra sativa); assay: Test B flooded paddy test; conditions: Flood, 0 to 100 scale where 0 is no effect and 100 is complete control, 13 to 15 d
Method in brief: as §1

[3] = tested on: ducksalad (Heteranthera limosa); assay: Test B flooded paddy test; conditions: Flood, 0 to 100 scale where 0 is no effect and 100 is complete control, 13 to 15 d
Method in brief: as §1

[4] = tested on: sedge, umbrella (small-flower umbrella sedge, Cyperus difformis); assay: Test B flooded paddy test; conditions: Flood, 0 to 100 scale where 0 is no effect and 100 is complete control, 13 to 15 d
Method in brief: as §1

[5] = tested on: ragweed (common ragweed, Ambrosia elatior); assay: Test A preemergence; conditions: for Plant response rating, Ragweed: 125 g ai/ha, preemergence, 0 to 100 scale (0 no effect, 100 complete control); for Ragweed plant response rating (0 to 100 scale, 0 is no effect, 100 is complete control): Preemergence, 500 g ai/ha, visual injury approx. 10 d
Method in brief: (§2)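 Ratings of 0 (no effect) to 100 (complete control) come from visual comparison with untreated controls roughly 10 d after treatment. Test chemicals, formulated in a non-phytotoxic solvent mixture with surfactant, were applied either as a preemergence directed soil spray on seeded soil or postemergence to one- to two-leaf plants 2 to 10 cm tall.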

[6] = tested on: Kochia (Kochia scoparia); assay: Test A preemergence; conditions: for Plant response rating, Kochia: 125 g ai/ha, preemergence, 0 to 100 scale (0 no effect, 100 complete control); for Kochia plant response rating (0 to 100 scale, 0 is no effect, 100 is complete control): Preemergence, 500 g ai/ha, visual injury approx. 10 d
Method in brief: as §2

[7] = tested on: pigweed (Amaranthus retroflexus); assay: Test A preemergence; conditions: for Plant response rating, Pigweed: 125 g ai/ha, preemergence, 0 to 100 scale (0 no effect, 100 complete control); for Pigweed plant response rating (0 to 100 scale, 0 is no effect, 100 is complete control): Preemergence, 500 g ai/ha, visual injury approx. 10 d
[8] = tested on: barnyardgrass (Echinochloa crus-galli); assay: Test A preemergence; conditions: for Plant response rating, Barnyardgrass: 125 g ai/ha, preemergence, 0 to 100 scale (0 no effect, 100 complete control); for Barnyardgrass plant response rating (0 to 100 scale, 0 is no effect, 100 is complete control): Preemergence, 500 g ai/ha, visual injury approx. 10 d
Method in brief: as §2

[9] = tested on: giant foxtail (Setaria faberii); assay: Test A preemergence; conditions: for Plant response rating, Foxtail, Giant: 125 g ai/ha, preemergence, 0 to 100 scale (0 no effect, 100 complete control); for Foxtail, Giant plant response rating (0 to 100 scale, 0 is no effect, 100 is complete control): Preemergence, 500 g ai/ha, visual injury approx. 10 d
Method in brief: as §2

[10] = tested on: ryegrass, Italian (Italian ryegrass, Lolium multiflorum); assay: Test A preemergence; conditions: for Plant response rating, Ryegrass, Italian: 125 g ai/ha, preemergence, 0 to 100 scale (0 no effect, 100 complete control); for Ryegrass, Italian plant response rating (0 to 100 scale, 0 is no effect, 100 is complete control): Preemergence, 500 g ai/ha, visual injury approx. 10 d
Method in brief: as §2

[11] = tested on: ragweed (common ragweed, Ambrosia elatior); assay: Test A postemergence; conditions: postemergence; for Ragweed plant response rating: 125 g ai/ha, visual injury rating on 0 to 100 scale (0 no effect, 100 complete control), approx. 10 d; for Plant response rating, Ragweed: 500 g ai/ha, 0 to 100 scale, 0 no effect, 100 complete control
Method in brief: as §2

[12] = tested on: Galium (catchweed bedstraw, Galium aparine); assay: Test A postemergence; conditions: postemergence; for Galium plant response rating: 125 g ai/ha, visual injury rating on 0 to 100 scale (0 no effect, 100 complete control), approx. 10 d; for Plant response rating, Galium: 500 g ai/ha, 0 to 100 scale, 0 no effect, 100 complete control
Method in brief: as §2

[13] = tested on: Kochia (Kochia scoparia); assay: Test A postemergence; conditions: postemergence; for Kochia plant response rating: 125 g ai/ha, visual injury rating on 0 to 100 scale (0 no effect, 100 complete control), approx. 10 d; for Plant response rating, Kochia: 500 g ai/ha, 0 to 100 scale, 0 no effect, 100 complete control
Method in brief: as §2

[14] = tested on: pigweed (Amaranthus retroflexus); assay: Test A postemergence; conditions: postemergence; for Pigweed plant response rating: 125 g ai/ha, visual injury rating on 0 to 100 scale (0 no effect, 100 complete control), approx. 10 d; for Plant response rating, Pigweed: 500 g ai/ha, 0 to 100 scale, 0 no effect, 100 complete control
Method in brief: as §2

[15] = tested on: corn (Zea mays); assay: Test A postemergence; conditions: postemergence; for Corn plant response rating: 125 g ai/ha, visual injury rating on 0 to 100 scale (0 no effect, 100 complete control), approx. 10 d; for Plant response rating, Corn: 500 g ai/ha, 0 to 100 scale, 0 no effect, 100 complete control
Method in brief: as §2

[16] = tested on: barnyardgrass (Echinochloa crus-galli); assay: Test A postemergence; conditions: postemergence; for Barnyardgrass plant response rating: 125 g ai/ha, visual injury rating on 0 to 100 scale (0 no effect, 100 complete control), approx. 10 d; for Plant response rating, Barnyardgrass: 500 g ai/ha, 0 to 100 scale, 0 no effect, 100 complete control
Method in brief: as §2

[17] = tested on: blackgrass (Alopecurus myosuroides); assay: Test A postemergence; conditions: postemergence; for Blackgrass plant response rating: 125 g ai/ha, visual injury rating on 0 to 100 scale (0 no effect, 100 complete control), approx. 10 d; for Plant response rating, Blackgrass: 500 g ai/ha, 0 to 100 scale, 0 no effect, 100 complete control
Method in brief: as §2

[18] = tested on: giant foxtail (Setaria faberii); assay: Test A postemergence; conditions: postemergence; for Foxtail, Giant plant response rating: 125 g ai/ha, visual injury rating on 0 to 100 scale (0 no effect, 100 complete control), approx. 10 d; for Plant response rating, Foxtail, Giant: 500 g ai/ha, 0 to 100 scale, 0 no effect, 100 complete control
Method in brief: as §2

[19] = tested on: ryegrass, Italian (Italian ryegrass, Lolium multiflorum); assay: Test A postemergence; conditions: postemergence; for Ryegrass, Italian plant response rating: 125 g ai/ha, visual injury rating on 0 to 100 scale (0 no effect, 100 complete control), approx. 10 d; for Plant response rating, Ryegrass, Italian: 500 g ai/ha, 0 to 100 scale, 0 no effect, 100 complete control
Method in brief: as §2

[20] = tested on: wheat (Triticum aestivum); assay: Test A postemergence; conditions: postemergence; for Wheat plant response rating: 125 g ai/ha, visual injury rating on 0 to 100 scale (0 no effect, 100 complete control), approx. 10 d; for Plant response rating, Wheat: 500 g ai/ha, 0 to 100 scale, 0 no effect, 100 complete control
Method in brief: as §2

| Compound | Plant response rating, Ragweed [5] | Ragweed plant response rating (0 to 100 scale, 0 is no effect, 100 is complete control) [5] | Plant response rating, Kochia [6] | Kochia plant response rating (0 to 100 scale, 0 is no effect, 100 is complete control) [6] | Plant response rating, Pigweed [7] | Pigweed plant response rating (0 to 100 scale, 0 is no effect, 100 is complete control) [7] | Plant response rating, Barnyardgrass [8] | Barnyardgrass plant response rating (0 to 100 scale, 0 is no effect, 100 is complete control) [8] | Plant response rating, Foxtail, Giant [9] | Foxtail, Giant plant response rating (0 to 100 scale, 0 is no effect, 100 is complete control) [9] | Plant response rating, Ryegrass, Italian [10] | Ryegrass, Italian plant response rating (0 to 100 scale, 0 is no effect, 100 is complete control) [10] | Ragweed plant response rating [11] | Plant response rating, Ragweed [11] | Galium plant response rating [12] | Plant response rating, Galium [12] | Kochia plant response rating [13] | Plant response rating, Kochia [13] | Pigweed plant response rating [14] | Plant response rating, Pigweed [14] | further results |
| --- | --- | --- | --- | --- | --- | --- | --- | --- | --- | --- | --- | --- | --- | --- | --- | --- | --- | --- | --- | --- | --- |
| O=C1NCC(c2ccc(Br)cc2)C1C(=O)Nc1ccccc1Cl (stereo not drawn) [Compound 453] | 0 | 20 | 0 | 30 | 20 | 30 | 80 | 90 | 90 | 90 | 0 | 0 | 0 | 0 | 30 | 40 | 20 | 30 | 0 | 0 | Plant response rating, Barnyardgrass ([1]; 250 g ai/ha): 30; Plant response rating, Rice ([2]; 250 g ai/ha): 0; Plant response rating, Ducksalad ([3]; 250 g ai/ha): 95; Plant response rating, Sedge, Umbrella ([4]; 250 g ai/ha): 0; Corn plant response rating [15]: 0; Plant response rating, Corn [15]: 40; Barnyardgrass plant response rating [16]: 80; Plant response rating, Barnyardgrass [16]: 80; Blackgrass plant response rating [17]: 0; Plant response rating, Blackgrass [17]: 30; Foxtail, Giant plant response rating [18]: 80; Plant response rating, Foxtail, Giant [18]: 80; Ryegrass, Italian plant response rating [19]: 0; Plant response rating, Ryegrass, Italian [19]: 0; Wheat plant response rating [20]: 0; Plant response rating, Wheat [20]: 30 |
| Cc1cc(NC(=O)C2C(=O)NCC2c2ccc(F)c(F)c2)ccc1F (stereo not drawn) [Compound 412] | 0 | 0 | 0 | 0 | 0 | 0 | 40 | 70 | 60 | 70 | 0 | 0 | 0 | 0 | 0 | 0 | 0 | 0 | 0 | 0 | Plant response rating, Barnyardgrass ([1]; 500 g ai/ha): 0; Plant response rating, Rice ([2]; 500 g ai/ha): 0; Plant response rating, Ducksalad ([3]; 500 g ai/ha): 30; Plant response rating, Sedge, Umbrella ([4]; 500 g ai/ha): 0; Corn plant response rating [15]: 0; Plant response rating, Corn [15]: 0; Barnyardgrass plant response rating [16]: 0; Plant response rating, Barnyardgrass [16]: 0; Blackgrass plant response rating [17]: 0; Plant response rating, Blackgrass [17]: 0; Foxtail, Giant plant response rating [18]: 0; Plant response rating, Foxtail, Giant [18]: 0; Ryegrass, Italian plant response rating [19]: 0; Plant response rating, Ryegrass, Italian [19]: 0; Wheat plant response rating [20]: 0; Plant response rating, Wheat [20]: 0 |
